Measured values as given in patent publication US7067491B2, “Heterocyclic compounds having elastase-inhibiting activity and intermediates thereof” (Dainippon Pharmaceutical Co., Ltd., priority 2002, dated 2006).

Experiments:
[1] = tested on: pulmonary hemorrhage induced by human neutrophil elastase (HNE); assay: Inhibitory activity on pulmonary hemorrhage induced by human neutrophil elastase (HNE); format: in vivo; conditions: hamster; for ED50: Homo sapiens, Neutrophil, po, orally administered 30 minutes prior to intratracheal HNE, hemoglobin in bronchoalveolar lavage fluid after 1 hour; for Pulmonary hemorrhage inhibitory rate (%): dose 3 mg/kg orally, 30 minutes prior to HNE
Excerpt: Experiment 3: Inhibitory Activity on Pulmonary Hemorrhage Induced by Human Neutrophil Elastase (HNE)
This experiment tested on in vivo efficacy of the compound of the present invention. When human neutrophil elastase is intratracheally administered to a hamster, the pulmonary hemorrhage is induced. A definite time later after administration of the elastase, in the bronchoalveolar lavage fluid by washing lung via trachea, hemoglobin is detected.
Hamsters (Syrian strain, 7–10 weeks old male) were divided into groups consisting of 3 to 6, and each group was treated as follows:
(A) A Group to which the Compound of the Present Invention was not Administered (Disease Control):
Physiological saline solution (0.2 ml) in which 25 unit of human neutrophil elastase (Elastin Product Co., Inc.) was dissolved was intratracheally administered to a hamster to induce the pulmonary hemorrhage. One hour later after administration of elastase, the hamsters were sacrificed by exsanquination, and alveoli were transtracheally washed twice with physiological saline (2.5 ml), and the hemoglobin concentration in the bronchoalveolar lavage fluid (5 ml) was determined by measuring the absorbance at 414 nm.
(B) A Group to which the Compound of the Present Invention was Administered:
A fixed amount of the compound of the present invention was dissolved in dimethyl sulfoxide (DMSO), and thereto was added 0.5% tragacanth gum to prepare a suspension. The suspension was orally administered to a hamster, 30 minutes prior to the administration of human neutrophil elastase (HNE) (final concentration of DMSO, 1%), and then, human neutrophil elastase was administered in the same manner as the above method (A). After 1 hour, the concentration of hemoglobin in the bronchoalveolar lavage fluid was determined in the same manner as the above method (A).
The hemorrhage inhibition activity of the compound of the present invention is represented as the hemorrhage inhibiting rate in the following formula.
The dose of the compound of the present invention to be required to achieve 50% inhibition of pulmonary hemorrhage (i.e., ED50) was calculated based on the administration dose-hemorrhage inhibiting rate curve.
As a comparative example, the same experiment was also carried out on a comparative compound used in Experiment 1.
Some of the compounds of the present invention were compared with the comparative compound on the hemorrhage inhibitory rate at the dose of 3 mg/kg.

[2] = biological target: T1, human neutrophil elastase (Homo sapiens, UniProt P08246); assay: Inhibitory activity on human neutrophil elastase (HNE) in vitro; format: biochemical; conditions: human neutrophil elastase 0.2 U/ml, substrate MeO-Suc-Ala-Ala-Pro-Val-pNA 0.5 mM, 37° C., pH 7.5
T1 construct: purchased Elastine Product Co., Inc
T1 sequence (P08246 30-267): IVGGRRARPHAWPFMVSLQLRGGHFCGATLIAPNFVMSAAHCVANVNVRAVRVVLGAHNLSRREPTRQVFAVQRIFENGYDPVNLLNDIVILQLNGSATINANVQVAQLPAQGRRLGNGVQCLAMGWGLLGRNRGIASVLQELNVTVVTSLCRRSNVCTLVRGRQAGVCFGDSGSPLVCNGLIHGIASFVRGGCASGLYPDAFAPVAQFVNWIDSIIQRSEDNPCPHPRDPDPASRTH
Experimental: Experiment 1: Inhibitory Activity on Human Neutrophil Elastase (HNE)
The inhibitory activity of the compound of the present invention in vitro on human neutrophil elastase was examined by this experiment.
To 100 mM of HEPES {[N-(2-hydroxyethyl)piperazine-N′-(2-ethanesulfonic acid)], pH 7.5}buffer solution containing 1M NaCl and 0.001% Brij-35 (polyoxyethylene lauryl ether) were added human neutrophil elastase (final concentration: 0.2 U/ml, Elastine Product Co., Inc.) and the compound of the present invention (dissolved in 10% dimethyl sulfoxide; final concentration: 10^−10˜3×10^−3 M). The mixture was pre-incubated for 3 minutes at 37° C. Thereto was added MeO-Suc-Ala-Ala-Pro-Val-pNA (methoxysuccinyl-alanyl-alanyl-prolyl-valyl-p-nitroanilide (Sigma Chemical Co.)) as a substrate to give the final concentration of 0.5 mM, and the reaction was initiated. Under this condition, the producing rate of the reaction product, p-nitroanilide (pNA) at 37° C. was estimated by measuring the absorbance at 404 nm for 3 minutes.
The inhibitory activity of the compound of the present invention against human neutrophil elastase (HNE) is calculated according to the following formula.
The concentration of the compound of the present invention to be required to achieve 50% HNE inhibition (i.e., IC50) was calculated based on the concentration-inhibitory rate curve of the compound of the present invention.
As a comparative compound, N-[(1S)-2-((2S)-2-{N-[(1S)-3,3,3-trifluoro-1-(methylethyl)-2-oxopropyl]carbamoyl}pyrrolidinyl)-1-(methylethyl)-2-oxoethyl](imidazol-4-yl)carboxamide was used, and the same assay was carried out. The planar structure of this compound was the same as one of compound (22) disclosed in J. Med. Chem., 1997, 40, 1876–1885.

[3] = tested on: ICR mice; assay: Acute toxicity; format: in vivo; conditions: male ICR mice (5 mice), 300 mg/kg orally, after 24 hours
Experimental: Experiment 5: Acute Toxicity
The compound of the present invention (each compound of Example 10, Example 11, Example 15, Example 25, and Example 40) was suspended in 0.5% tragacanth gum and the suspension was orally administered to 7 weeks old, male ICR mice (5 mice) at 300 mg/kg.

[4] = biological target: T2, porcine pancreas elastase (Sus scrofa, UniProt P00772); assay: Inhibitory activity against porcine pancreas elastase; format: biochemical; conditions: porcine pancreas elastase 40 ng/ml, substrate Suc-Ala-Ala-Ala-pNA 2.5 mM
T2 construct: purchased Elastin Products Co., Inc
Experimental: Experiment 2: Inhibitory Activity Against Porcine Pancreas Elastase
The inhibitory activity was measured in the same manner as experiment 1, except for using porcine pancreas elastase (Elastin Products Co., Inc., final concentration 40 ng/ml) as a target enzyme and Suc-Ala-Ala-Ala-pNA (succinyl-alanyl-alanyl-alanyl-p-nitroanilide, Peptide Research, final concentration 2.5 mM) as a substrate.

T2 sequence (P00772 27-266): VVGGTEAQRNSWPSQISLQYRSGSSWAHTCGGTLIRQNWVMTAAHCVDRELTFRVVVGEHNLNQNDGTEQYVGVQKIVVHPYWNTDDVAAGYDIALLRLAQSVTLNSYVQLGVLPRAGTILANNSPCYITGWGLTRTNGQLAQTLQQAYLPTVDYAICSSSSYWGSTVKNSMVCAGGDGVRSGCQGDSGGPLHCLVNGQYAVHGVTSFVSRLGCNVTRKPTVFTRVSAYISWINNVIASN

Row | IC50 [2] [nM] | IC50 [4] [nM] | SMILES | ED50 [1] [mg/kg] | Acute toxicity: death or not [3] | Pulmonary hemorrhage inhibitory rate (%) [1] [%]
1 | 17 |  | CCc1noc(C)c1C(=O)N[C@H](C(=O)N1CCC[C@H]1C(=O)N[C@H](C(=O)C(F)(F)F)C(C)C)C(C)C [Example 4, N-[(1S)-2-((2S)-2-{N-[(1S)-3,3,3-trifluoro-1-(methylethyl)-2-oxopropyl]carbamoyl}pyrrolidinyl)-1-(methylethyl)-2-oxoethyl]-(3-ethyl-5-methylisoxazol-4-yl)carboxamide] | 2.5 |  | 
2 | 13 | 155 | Cc1nnsc1C(=O)N[C@H](C(=O)N1CCC[C@H]1C(=O)N[C@H](C(=O)C(F)(F)F)C(C)C)C(C)C [Example 3, N-[(1S)-2-((2S)-2-{N-[(1S)-3,3,3-trifluoro-1-(methylethyl)-2-oxopropyl]carbamoyl}pyrrolidinyl)-1-(methylethyl)-2-oxoethyl]-(4-methyl-1,2,3-thiadiazol-5-yl)carboxamide] | 1.6 |  | 
3 | 16 |  | CC(C)Oc1cc(C(=O)N[C@H](C(=O)N2CCC[C@H]2C(=O)N[C@H](C(=O)C(F)(F)F)C(C)C)C(C)C)on1 [Example 12, N-[(1S)-2-((2S)-2-{N-[(1S)-3,3,3-trifluoro-1-(methylethyl)-2-oxopropyl]carbamoyl}pyrrolidinyl)-1-(methylethyl)-2-oxoethyl]-[3-(methylethoxy)isoxazol-5-yl]carboxamide] |  |  | 66
4 | 15 |  | Cc1c(C(=O)N[C@H](C(=O)N2CCC[C@H]2C(=O)N[C@H](C(=O)C(F)(F)F)C(C)C)C(C)C)cnn1-c1ccc(C(F)(F)F)cc1 [Example 47, N-[(1S)-2-((2S)-2-{N-[(1S)-3,3,3-trifluoro-1-(methylethyl)-2-oxopropyl]carbamoyl}pyrrolidinyl)-1-(methylethyl)-2-oxoethyl]-{5-methyl-1-[4-(trifluoromethyl)phenyl]pyrazol-4-yl}carboxamide] |  |  | 60
5 | 8.1 | 215 | CC(C)[C@H](NC(=O)c1noc2ccccc12)C(=O)N1CCC[C@H]1C(=O)N[C@H](C(=O)C(F)(F)F)C(C)C [Example 2, N-[(1S)-2-((2S)-2-{N-[(1S)-3,3,3-trifluoro-1-(methylethyl)-2-oxopropyl]carbamoyl}pyrrolidinyl)-1-(methylethyl)-2-oxoethyl](benzo [d]isoxazol-3-yl)carboxamide] | 0.86 |  | 
6 | 8.3 |  | Cc1c(C(=O)N[C@H](C(=O)N2CCC[C@H]2C(=O)N[C@H](C(=O)C(F)(F)F)C(C)C)C(C)C)cnn1-c1ccc(Cl)cc1 [Example 38, N-[(1S)-2-((2S)-2-{N-[(1S)-3,3,3-trifluoro-1-(methylethyl)-2-oxopropyl]carbamoyl}pyrrolidinyl)-1-(methylethyl)-2-oxoethyl]-[1-(4-chlorophenyl)-5-methylpyrazol-4-yl]carboxamide] |  |  | 63

Further lines, the compound ahead of its results:

Row | SMILES | IC50 [2] [nM] | IC50 [4] [nM] | ED50 [1] [mg/kg] | Acute toxicity: death or not [3] | Pulmonary hemorrhage inhibitory rate (%) [1] [%]
7 | Cc1c(C(=O)N[C@H](C(=O)N2CCC[C@H]2C(=O)N[C@H](C(=O)C(F)(F)F)C(C)C)C(C)C)cnn1-c1ccccc1 [Example 10, N-[(1S)-2-((2S)-2-{N-[(1S)-3,3,3-trifluoro-1-(methylethyl)-2-oxopropyl]carbamoyl}pyrrolidinyl)-1-(methylethyl)-2-oxoethyl]-(5-methyl-1-phenylpyrazol-4-yl)carboxamide] | 10 |  | 1.1 | all were alive | 
8 | COc1ccc(-n2ncc(C(=O)N[C@H](C(=O)N3CCC[C@H]3C(=O)N[C@H](C(=O)C(F)(F)F)C(C)C)C(C)C)c2C)cc1 [Example 40, N-[(1S)-2-((2S)-2-{N-[(1S)-3,3,3-trifluoro-1-(methylethyl)-2-oxopropyl]carbamoyl}pyrrolidinyl)-1-(methylethyl)-2-oxoethyl]-[5-methyl-1-(4-methoxyphenyl)pyrazol-4-yl]carboxamide] | 8.4 |  |  | all were alive | 70
9 | Cc1noc(C)c1C(=O)N[C@H](C(=O)N1CCC[C@H]1C(=O)N[C@H](C(=O)C(F)(F)F)C(C)C)C(C)C [Example 1, N-[(1S)-2-((2S)-2-{N-[(1S)-3,3,3-trifluoro-1-(methylethyl)-2-oxopropyl]carbamoyl}pyrrolidinyl)-1-(methylethyl)-2-oxoethyl](3,5-dimethylisoxazol-4-yl)carboxamide] | 17 | 154 | 2.6 |  | 
10 | Cc1cc(C(=O)N[C@H](C(=O)N2CCC[C@H]2C(=O)N[C@H](C(=O)C(F)(F)F)C(C)C)C(C)C)no1 [Example 15, N-[(1S)-2-((2S)-2-{N-[(1S)-3,3,3-trifluoro-1-(methylethyl)-2-oxopropyl]carbamoyl}pyrrolidinyl)-1-(methylethyl)-2-oxoethyl]-(5-methylisoxazol-3-yl)carboxamide] | 24 |  | 0.62 | all were alive | 
11 | COc1cc(C(=O)N[C@H](C(=O)N2CCC[C@H]2C(=O)N[C@H](C(=O)C(F)(F)F)C(C)C)C(C)C)on1 [Example 11, N-[(1S)-2-((2S)-2-{N-[(1S)-3,3,3-trifluoro-1-(methylethyl)-2-oxopropyl]carbamoyl}pyrrolidinyl)-1-(methylethyl)-2-oxoethyl]-(3-methoxyisoxazol-5-yl)carboxamide] | 27 |  | 1.5 | all were alive | 
12 | CC(C)[C@H](NC(=O)c1cc(C(C)(C)C)n(C)n1)C(=O)N1CCC[C@H]1C(=O)N[C@H](C(=O)C(F)(F)F)C(C)C [Example 25, N-[(1S)-2-((2S)-2-{N-[(1S)-3,3,3-trifluoro-1-(methylethyl)-2-oxopropyl]carbamoyl}pyrrolidinyl)-1-(methylethyl)-2-oxoethyl]-(5-tert-butyl-1-methylpyrazol-3-yl)carboxamide] |  |  |  | all were alive | 
